{"source": "patent US20250339569A1", "about": "“CARBONIC ANHYDRASE IX LIGANDS” (priority 2021, published 2025)", "key": {"[1]": {"test": "Pharmacokinetic characterization in healthy mice", "format": "in vivo, CD-1 mice", "conditions": "male, CD-1, plasma, iv, mouse; for clearance: read-out: Clearance (CL); for half-life: read-out: terminal elimination half-life (converted); for Vd: read-out: volume of distribution (Vd)", "procedure": "The pharmacokinetics of DPI-4452 after a single intravenous (i.v.) dose were investigated in healthy mice. […] Plasma and urine samples collected after dosing were analyzed using a LC-HRMS (liquid chromatography coupled with high-resolution mass spectrometry) assay method. Concentration values were used for pharmacokinetic calculations.\nMale CD-1 mice (3 animals per time point and per dose level; overall, 28.2-37.6 g body weight) were administered intravenously in the tail vein in a 2 mL/kg dosing volume. Blood samples were collected in K2EDTA tubes at 5 min, 15 min, 30 min, 1 h, 2 h, 4 h, 8 h, and urine was collected over 8 hours post dose. The blood samples were kept on wet ice until plasma separation by centrifugation at room temperature; 10 min; 2500 G, which was performed within 60 min after sampling. The plasma samples were transferred into plastic tubes, frozen and stored at −80° C. until analysis.\nPlasma and urine samples were analyzed by LC-HRMS after solid phase extraction, using a stable isotope-labeled internal standard (^13C6, ^15N-DPI-4452). Chromatographic separation was run on a Waters Acquity HSS T3 C18 2.1×50 mm, 1.8 μm column. Detection was achieved on a Sciex API6600 TOF mass spectrometer. The lower limit of quantification was 1.00 ng/mL in plasma and urine.\nThe non-compartmental (NCA) pharmacokinetic analysis of plasma concentration data was conducted using Phoenix 64 WinNonlin (Build 8.3.3.33) software. Nominal doses were used for all animals. The terminal phase half-life (T1/2) was calculated by least-squares regression analysis of the terminal linear part of the log concentration-time curve. The area under the plasma concentration-time curve (AUC) was determined with the linear trapezoidal rule for increasing values and log trapezoidal rule for decreasing values up to the last measurable concentration."}, "[2]": {"system": "SK-RC-52 tumor", "test": "Biodistribution study (SPECT/CT) in SK-RC-52 tumor-bearing mice with or without gelofusine", "format": "in vivo, NMRI nude mice", "conditions": "SK-RC-52, In-111-labeled; for % remaining tumor uptake at 24 h p.i.: Mean ± SEM"}}, "note": "Read-outs that look alike come from different tables or passages of the source.", "data": [{"smiles": "CC(C)C[C@@H]1NC(=O)[C@H](Cc2cccc(NC(=O)CCCS(N)(=O)=O)c2)NC(=O)[C@H](CC(=O)O)NC(=O)[C@H]2CCCN2C(=O)[C@H](CCC(=O)O)NC(=O)[C@@H](NC(=O)[C@H](CCC(N)=O)NC(=O)CN2CCN(C(=O)CN3CCN(CC(=O)O)CCN(CC(=O)O)CCN(CC(=O)O)CC3)CC2)CSCc2cccc(c2)CSC[C@@H](C(N)=O)NC(=O)[C@H](CO)NC(=O)[C@H](Cc2c[nH]c3ccccc23)NC(=O)[C@H]([C@@H](C)O)NC1=O", "note": "[DPI-4452, DOTA-PPAc-Gln-[Cys(3MeBn)-Glu-pro-Asp-Af3(Cpsu)-Leu-Thr-Trp-Ser-Cys]-NH2]", "values": [{"measurement": "AUC(0-inf)", "setting": "[1]; i.v. 0.7 mg/kg", "result": 424, "unit": "ng·h/mL"}, {"measurement": "clearance", "setting": "[1]; i.v. 0.7 mg/kg", "result": 27.5, "unit": "mL/min/kg"}, {"measurement": "half-life", "setting": "[1]; i.v. 0.7 mg/kg", "result": 16.8, "unit": "min"}, {"measurement": "Vd", "setting": "[1]; i.v. 0.7 mg/kg", "result": 0.408, "unit": "L/kg"}, {"measurement": "AUC(0-inf)", "setting": "[1]; i.v. 5.5 mg/kg", "result": 2820, "unit": "ng·h/mL"}, {"measurement": "clearance", "setting": "[1]; i.v. 5.5 mg/kg", "result": 32.5, "unit": "mL/min/kg"}, {"measurement": "half-life", "setting": "[1]; i.v. 5.5 mg/kg", "result": 27.9, "unit": "min"}, {"measurement": "Vd", "setting": "[1]; i.v. 5.5 mg/kg", "result": 0.455, "unit": "L/kg"}, {"measurement": "Time to peak uptake in tumor", "setting": "[2]; 4% gelofusine before", "result": 4, "unit": "h"}, {"measurement": "% remaining tumor uptake at 24 h p.i.", "setting": "[2]; 4% gelofusine before", "result": "69.6 ± 6.6", "unit": "%"}, {"measurement": "Time to peak uptake in tumor", "setting": "[2]; no gelofusine", "result": 1, "unit": "h"}, {"measurement": "% remaining tumor uptake at 24 h p.i.", "setting": "[2]; no gelofusine", "result": "73.3 ± 0.8", "unit": "%"}]}]}
